{"source": "patent US11046722B2", "about": "“Sulphated disaccharides for the treatment of neuropathic pain” (BIOIBERICA, S.A.U., priority 2017, dated 2021)", "key": {"[1]": {"tested_on": "allodynia induced in mice by injecting paclitaxel", "experiment": "Neuropathic pain induced by chemotherapy (paclitaxel): prevention by coadministration with paclitaxel", "format": "in vivo", "details": "30 mg/Kg orally daily for 5 consecutive days coadministered with paclitaxel, evaluated on the 10th day", "procedure": "In Example 3 an experimental model is used in mice based on inducing allodynia by intraperitoneal injection of paclitaxel, as described in the articles by Smith et al., Paclitaxel-induced neuropathic hypersensitivity in mice: responses in 10 inbred mouse strains, Life Sci., 2014, 2593-2604 and Palomano et al., Chemotherapy-evoked painful peripheral neuropathy, Pain Med., 2001, 2 (1), 8-14. In alternative trials, compound Ic was administered after allodynia induction by paclitaxel, or it was administered jointly with this chemotherapy medication. […]\nIn this test, groups of mice between 7 and 12 animals were used, to which a daily dose of paclitaxel of 2 mg/Kg was administered by intraperitoneal route for 5 consecutive days (except for the control group). The evaluation of the induced mechanical allodynia was carried out on the 10th day after the first paclitaxel injection, and was quantified by using the von Frey filaments, according to the force threshold necessary to cause the paw withdrawal of the animal.\nA second trial was carried out using this same model, according to which a daily dose of compound Ic was administered orally, for 5 consecutive days, coadministered with paclitaxel. The allodynia was evaluated the 10th day after the beginning of the treatment. […]"}, "[2]": {"tested_on": "mechanical allodynia induced in mice by intraplantar capsaicin injection", "experiment": "Mechanical allodynia induced by intraplantar capsaicin injection (von Frey, latency to paw withdrawal)", "format": "in vivo", "text": "Thus, in Example 1, an experimental trial is described performed on mice with mechanical allodynia induced by intraplantar capsaicin injection, according to the model described in the article by Entrena et al., Antagonism by haloperidol and its metabolites of mechanical hypersensitivity induced by intraplantar capsaicin in mice: role of sigma-1 receptors, Psychopharmacology, 2009, 205, 21-33. This trial is based on hypersensitivity induced in the mice by means of injecting capsaicin in the right hind paw. The allodynia is quantified by measuring the decrease in latency time in the hypersensitized mice until paw withdrawal, when a mechanical stimulus is applied to it.\nFor this trial, 6 groups of mice were used with between 8 and 12 animals in each group. […] 15 minutes after the injection, different mechanical stimuli were applied with a von Frey filament with a force of 0.5 g in an esthesiometer, and the values of the latency time until paw withdrawal were recorded. […]\nIn order to quantify the anti-allodynic effect, a value of 100% allodynia was assigned to the latency time of the animals injected with capsaicin and without pharmacological treatment (only treated with the vehicle). […]"}}}
{"smiles": "CO[C@H]1O[C@H](COS(=O)(=O)[O-])[C@@H](OS(=O)(=O)[O-])[C@H](O[C@@H]2O[C@H](C(=O)[O-])[C@@H](O)[C@H](O)[C@H]2O)[C@H]1NC(C)=O.[Na+].[Na+].[Na+]", "note": "[Compound Ic, methyl 2-acetamido-2-desoxi-3-O-(β-D-glucopyranosyluronic acid)-4,6-di-O-sulfo-α-D-glucopyranoside trisodium salt]", "values": [{"measurement": "prevention of the development of allodynia", "setting": "[1]", "result": "prevented the development of allodynia"}, {"measurement": "anti-allodynic effect", "setting": "[2]; capsaicin 1 μg intraplantar, 3, 10 and 30 mg/Kg by gavage 45 minutes before the trial, effect dose-dependent", "result": "notable anti-allodynic effect"}, {"measurement": "reduction of the allodynia", "setting": "[2]; capsaicin, highest dose 30 mg/Kg by gavage 45 minutes before the trial, 100% = capsaicin + vehicle", "result": "more than 50%"}]}
